Source: ChEMBL document CHEMBL1201862, “PubChem BioAssay data set” (2004)
Active and inactive are the calls of the source.

How the values were obtained:
Cytochrome P450 3A4 = Cytochrome P450 3A4 (Homo sapiens, UniProt P08684);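 note: CYP3A4 tested as one member of a cytochrome P450 panel screen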
Coagulation factor XII = biological target: T1, Coagulation factor XII (Homo sapiens, UniProt P00748); type: functional;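 note: activated factor XIIa alpha cleaving a fluorogenic AMC peptide substrate; inhibitor potency from loss of enzyme activity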
T1 sequence (P00748 whole entry): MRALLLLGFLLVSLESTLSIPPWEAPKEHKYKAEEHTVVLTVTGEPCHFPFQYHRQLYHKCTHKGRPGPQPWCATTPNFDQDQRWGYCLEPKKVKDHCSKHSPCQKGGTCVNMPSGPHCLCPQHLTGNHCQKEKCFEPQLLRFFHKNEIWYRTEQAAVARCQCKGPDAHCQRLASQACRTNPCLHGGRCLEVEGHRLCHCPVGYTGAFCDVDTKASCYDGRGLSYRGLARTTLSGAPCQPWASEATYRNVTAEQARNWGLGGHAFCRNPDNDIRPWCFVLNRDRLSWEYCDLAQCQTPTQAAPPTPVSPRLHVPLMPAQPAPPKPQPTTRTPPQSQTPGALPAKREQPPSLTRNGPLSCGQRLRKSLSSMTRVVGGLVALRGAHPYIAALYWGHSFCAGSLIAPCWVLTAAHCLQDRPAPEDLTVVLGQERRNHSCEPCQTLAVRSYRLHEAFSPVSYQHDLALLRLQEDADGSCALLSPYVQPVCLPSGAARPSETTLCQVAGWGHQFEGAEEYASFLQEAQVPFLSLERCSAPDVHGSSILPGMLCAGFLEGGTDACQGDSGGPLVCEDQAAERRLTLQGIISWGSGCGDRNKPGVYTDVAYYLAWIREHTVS

Cysteine protease ATG4B = biological target: T2, Cysteine protease ATG4B (Homo sapiens, UniProt Q9Y4P1); type: functional;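 note: Fluorescence-based dose-response confirmation assay measuring inhibition of ATG4B activity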
T2 sequence (Q9Y4P1 whole entry): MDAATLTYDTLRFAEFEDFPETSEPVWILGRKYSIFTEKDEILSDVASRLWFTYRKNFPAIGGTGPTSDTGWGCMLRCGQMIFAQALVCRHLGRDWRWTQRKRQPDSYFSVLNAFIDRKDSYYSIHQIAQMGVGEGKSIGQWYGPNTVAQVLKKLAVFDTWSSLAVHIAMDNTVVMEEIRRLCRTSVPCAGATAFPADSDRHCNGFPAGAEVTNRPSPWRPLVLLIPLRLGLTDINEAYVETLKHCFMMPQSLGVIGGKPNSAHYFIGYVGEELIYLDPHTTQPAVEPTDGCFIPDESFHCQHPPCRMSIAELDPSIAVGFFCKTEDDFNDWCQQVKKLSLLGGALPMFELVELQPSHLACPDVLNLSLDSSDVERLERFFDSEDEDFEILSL

Phospholipase A2 = Phospholipase A2 (Homo sapiens, UniProt P04054); type: functional;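 note: confirmatory dose-response counterscreen on phospholipase A2, testing hits that came from an ultra-high-throughput screen for ATG4B inhibitors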
HeLa = assay: ATP-based viability loss in HeLa cells – cell-based, CellTiter-Glo luminescence, cherry-pick samples, cytotoxicity control for MITF activator project, dose response (AID 540259); type: functional; conditions: Homo sapiens
[1] = biological target: T3, Voltage-gated N-type calcium channel alpha-1B subunit/Amyloid beta A4 precursor protein-binding family A member 1 (Homo sapiens, UniProt Q00975+Q02410); type: protein assay
T3 sequence (Q00975 whole entry): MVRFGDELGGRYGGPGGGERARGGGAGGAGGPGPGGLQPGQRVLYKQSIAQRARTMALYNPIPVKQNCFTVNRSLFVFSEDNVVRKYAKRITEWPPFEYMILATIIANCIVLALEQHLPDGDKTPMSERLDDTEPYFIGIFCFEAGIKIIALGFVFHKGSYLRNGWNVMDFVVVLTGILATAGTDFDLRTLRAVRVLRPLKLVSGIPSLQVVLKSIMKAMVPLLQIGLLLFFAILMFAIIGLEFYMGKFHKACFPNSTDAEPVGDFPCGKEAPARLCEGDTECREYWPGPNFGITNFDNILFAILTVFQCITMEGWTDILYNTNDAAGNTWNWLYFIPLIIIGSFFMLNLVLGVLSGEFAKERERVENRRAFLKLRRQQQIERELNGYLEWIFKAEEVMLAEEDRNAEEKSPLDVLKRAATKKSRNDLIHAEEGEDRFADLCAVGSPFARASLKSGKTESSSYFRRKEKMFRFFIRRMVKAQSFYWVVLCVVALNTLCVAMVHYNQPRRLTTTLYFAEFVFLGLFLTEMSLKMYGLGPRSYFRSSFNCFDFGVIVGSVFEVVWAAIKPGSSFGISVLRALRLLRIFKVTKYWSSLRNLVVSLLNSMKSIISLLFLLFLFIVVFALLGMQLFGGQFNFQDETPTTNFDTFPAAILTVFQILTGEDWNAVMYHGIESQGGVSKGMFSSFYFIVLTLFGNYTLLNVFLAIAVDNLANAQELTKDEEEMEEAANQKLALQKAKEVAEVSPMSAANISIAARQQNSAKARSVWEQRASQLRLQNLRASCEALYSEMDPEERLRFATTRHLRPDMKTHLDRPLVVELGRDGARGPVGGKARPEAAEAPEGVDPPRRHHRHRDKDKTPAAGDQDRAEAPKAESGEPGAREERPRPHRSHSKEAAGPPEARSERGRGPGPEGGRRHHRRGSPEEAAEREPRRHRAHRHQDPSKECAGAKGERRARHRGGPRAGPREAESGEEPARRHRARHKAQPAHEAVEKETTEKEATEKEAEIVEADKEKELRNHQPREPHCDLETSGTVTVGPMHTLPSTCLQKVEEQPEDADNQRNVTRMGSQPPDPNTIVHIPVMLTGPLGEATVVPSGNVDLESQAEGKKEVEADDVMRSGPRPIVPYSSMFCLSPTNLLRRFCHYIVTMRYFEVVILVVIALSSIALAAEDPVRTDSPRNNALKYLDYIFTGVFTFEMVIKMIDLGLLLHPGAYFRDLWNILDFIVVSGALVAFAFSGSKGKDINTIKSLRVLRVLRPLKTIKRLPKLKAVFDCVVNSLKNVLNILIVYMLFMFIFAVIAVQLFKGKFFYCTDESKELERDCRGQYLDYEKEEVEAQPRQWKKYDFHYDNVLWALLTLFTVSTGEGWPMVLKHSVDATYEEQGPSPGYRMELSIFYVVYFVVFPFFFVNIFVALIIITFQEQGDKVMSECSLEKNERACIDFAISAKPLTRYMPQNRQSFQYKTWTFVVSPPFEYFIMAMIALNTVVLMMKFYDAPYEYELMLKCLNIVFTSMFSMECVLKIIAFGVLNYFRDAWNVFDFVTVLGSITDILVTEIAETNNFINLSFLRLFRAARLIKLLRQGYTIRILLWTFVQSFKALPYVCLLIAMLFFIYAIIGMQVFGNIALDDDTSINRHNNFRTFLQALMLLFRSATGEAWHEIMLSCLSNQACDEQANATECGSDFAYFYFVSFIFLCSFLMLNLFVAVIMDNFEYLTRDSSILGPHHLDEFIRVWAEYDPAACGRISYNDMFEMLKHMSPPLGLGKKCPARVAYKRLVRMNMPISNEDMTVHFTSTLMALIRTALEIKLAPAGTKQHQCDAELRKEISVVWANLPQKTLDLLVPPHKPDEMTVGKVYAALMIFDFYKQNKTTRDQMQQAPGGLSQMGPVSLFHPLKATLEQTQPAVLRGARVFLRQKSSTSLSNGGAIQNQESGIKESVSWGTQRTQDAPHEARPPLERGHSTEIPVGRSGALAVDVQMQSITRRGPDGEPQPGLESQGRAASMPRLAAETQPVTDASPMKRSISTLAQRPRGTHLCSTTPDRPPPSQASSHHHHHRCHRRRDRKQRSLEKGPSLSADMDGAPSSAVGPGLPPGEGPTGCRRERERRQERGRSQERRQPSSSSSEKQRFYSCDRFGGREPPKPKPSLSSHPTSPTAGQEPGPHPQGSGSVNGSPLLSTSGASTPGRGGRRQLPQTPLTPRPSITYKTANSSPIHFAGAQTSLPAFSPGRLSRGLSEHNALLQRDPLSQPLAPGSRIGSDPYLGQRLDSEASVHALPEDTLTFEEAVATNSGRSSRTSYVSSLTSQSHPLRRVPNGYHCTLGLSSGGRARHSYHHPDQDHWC
T3 sequence (Q02410 whole entry): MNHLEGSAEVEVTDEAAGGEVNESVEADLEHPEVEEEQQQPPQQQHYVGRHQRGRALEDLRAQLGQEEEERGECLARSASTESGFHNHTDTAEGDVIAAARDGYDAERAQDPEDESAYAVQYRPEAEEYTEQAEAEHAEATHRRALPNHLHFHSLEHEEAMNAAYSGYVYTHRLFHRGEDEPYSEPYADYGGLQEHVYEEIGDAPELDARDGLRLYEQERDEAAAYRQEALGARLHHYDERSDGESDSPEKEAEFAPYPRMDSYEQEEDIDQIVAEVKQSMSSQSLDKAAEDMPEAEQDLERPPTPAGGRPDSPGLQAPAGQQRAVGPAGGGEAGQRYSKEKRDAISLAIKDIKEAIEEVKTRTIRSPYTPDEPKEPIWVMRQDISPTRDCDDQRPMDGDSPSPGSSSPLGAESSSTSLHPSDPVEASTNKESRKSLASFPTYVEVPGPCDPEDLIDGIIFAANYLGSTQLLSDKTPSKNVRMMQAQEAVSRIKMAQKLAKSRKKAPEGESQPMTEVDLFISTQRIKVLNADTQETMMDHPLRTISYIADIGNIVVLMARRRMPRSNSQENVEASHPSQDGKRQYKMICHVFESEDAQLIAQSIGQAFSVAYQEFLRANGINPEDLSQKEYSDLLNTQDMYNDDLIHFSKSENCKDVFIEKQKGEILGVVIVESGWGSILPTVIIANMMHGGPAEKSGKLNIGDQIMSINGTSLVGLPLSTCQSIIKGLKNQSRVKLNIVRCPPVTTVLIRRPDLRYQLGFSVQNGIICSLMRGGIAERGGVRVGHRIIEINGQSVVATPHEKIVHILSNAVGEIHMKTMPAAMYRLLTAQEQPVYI

[2] = biological target: T3, Voltage-gated N-type calcium channel alpha-1B subunit/Amyloid beta A4 precursor protein-binding family A member 1; type: protein assay; remark: listed apart in the source
[3] = biological target: T4, Short transient receptor potential channel 4 (Mus musculus, UniProt Q9QUQ5); assay: block of DAMGO-driven TRPC4 calcium entry – cell-based, HEK293 TRPC4/mu-opioid, Fluo-4 calcium, dose response (AID 434942); type: functional;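 note: potency of inhibitors blocking the TRPC4 calcium response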
T4 sequence (Q9QUQ5 whole entry): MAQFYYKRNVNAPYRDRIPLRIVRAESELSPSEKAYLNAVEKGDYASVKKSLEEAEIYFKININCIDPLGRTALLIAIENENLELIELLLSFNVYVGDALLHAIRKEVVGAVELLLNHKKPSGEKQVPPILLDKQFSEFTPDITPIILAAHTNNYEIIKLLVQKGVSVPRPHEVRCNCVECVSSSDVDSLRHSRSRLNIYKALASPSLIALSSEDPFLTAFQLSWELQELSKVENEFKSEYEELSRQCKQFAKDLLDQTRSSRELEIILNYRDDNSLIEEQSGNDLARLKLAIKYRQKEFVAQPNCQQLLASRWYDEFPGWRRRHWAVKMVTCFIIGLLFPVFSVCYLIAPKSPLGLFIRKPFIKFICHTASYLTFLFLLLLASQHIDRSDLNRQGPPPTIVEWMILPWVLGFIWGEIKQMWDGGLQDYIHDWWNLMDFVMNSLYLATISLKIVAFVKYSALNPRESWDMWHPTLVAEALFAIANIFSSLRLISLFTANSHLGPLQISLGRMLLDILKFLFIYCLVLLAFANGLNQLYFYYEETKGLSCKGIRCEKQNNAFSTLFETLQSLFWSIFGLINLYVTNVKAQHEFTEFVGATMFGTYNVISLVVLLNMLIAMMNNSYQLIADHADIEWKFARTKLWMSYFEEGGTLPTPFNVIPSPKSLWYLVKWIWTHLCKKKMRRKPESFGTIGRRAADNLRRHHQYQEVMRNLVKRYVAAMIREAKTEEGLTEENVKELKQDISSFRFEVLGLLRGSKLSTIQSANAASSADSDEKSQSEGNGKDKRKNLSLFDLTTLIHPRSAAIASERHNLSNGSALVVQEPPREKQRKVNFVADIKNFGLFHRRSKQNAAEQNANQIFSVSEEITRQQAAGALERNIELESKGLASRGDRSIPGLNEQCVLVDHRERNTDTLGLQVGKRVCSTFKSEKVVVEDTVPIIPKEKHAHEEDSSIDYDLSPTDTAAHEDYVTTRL

[4] = biological target: T5, C-C chemokine receptor type 6 (Homo sapiens, UniProt P51684); assay: antagonism of CCR6 beta-arrestin recruitment – cell-based, luminescent beta-arrestin readout, dose response (AID 504728); type: functional
T5 sequence (P51684 whole entry): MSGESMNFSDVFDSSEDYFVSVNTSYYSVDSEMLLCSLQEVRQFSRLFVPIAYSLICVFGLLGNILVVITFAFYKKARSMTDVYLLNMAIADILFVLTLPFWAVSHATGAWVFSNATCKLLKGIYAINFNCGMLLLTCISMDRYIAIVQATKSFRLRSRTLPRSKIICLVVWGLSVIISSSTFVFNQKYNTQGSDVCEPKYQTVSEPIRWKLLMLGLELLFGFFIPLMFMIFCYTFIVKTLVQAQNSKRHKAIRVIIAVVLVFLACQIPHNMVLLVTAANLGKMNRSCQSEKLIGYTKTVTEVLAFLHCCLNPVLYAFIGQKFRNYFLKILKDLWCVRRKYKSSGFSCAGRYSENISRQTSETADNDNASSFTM

Beta-galactosidase = Beta-galactosidase (Escherichia coli, UniProt Q8VNN2); assay: detection-enzyme interference by beta-gal modulators – biochemical, E. coli enzyme, set 3, artefact control for CCR6 antagonist project, dose response (AID 504712); type: functional
Beta-galactosidase, sequence (Q8VNN2 whole entry): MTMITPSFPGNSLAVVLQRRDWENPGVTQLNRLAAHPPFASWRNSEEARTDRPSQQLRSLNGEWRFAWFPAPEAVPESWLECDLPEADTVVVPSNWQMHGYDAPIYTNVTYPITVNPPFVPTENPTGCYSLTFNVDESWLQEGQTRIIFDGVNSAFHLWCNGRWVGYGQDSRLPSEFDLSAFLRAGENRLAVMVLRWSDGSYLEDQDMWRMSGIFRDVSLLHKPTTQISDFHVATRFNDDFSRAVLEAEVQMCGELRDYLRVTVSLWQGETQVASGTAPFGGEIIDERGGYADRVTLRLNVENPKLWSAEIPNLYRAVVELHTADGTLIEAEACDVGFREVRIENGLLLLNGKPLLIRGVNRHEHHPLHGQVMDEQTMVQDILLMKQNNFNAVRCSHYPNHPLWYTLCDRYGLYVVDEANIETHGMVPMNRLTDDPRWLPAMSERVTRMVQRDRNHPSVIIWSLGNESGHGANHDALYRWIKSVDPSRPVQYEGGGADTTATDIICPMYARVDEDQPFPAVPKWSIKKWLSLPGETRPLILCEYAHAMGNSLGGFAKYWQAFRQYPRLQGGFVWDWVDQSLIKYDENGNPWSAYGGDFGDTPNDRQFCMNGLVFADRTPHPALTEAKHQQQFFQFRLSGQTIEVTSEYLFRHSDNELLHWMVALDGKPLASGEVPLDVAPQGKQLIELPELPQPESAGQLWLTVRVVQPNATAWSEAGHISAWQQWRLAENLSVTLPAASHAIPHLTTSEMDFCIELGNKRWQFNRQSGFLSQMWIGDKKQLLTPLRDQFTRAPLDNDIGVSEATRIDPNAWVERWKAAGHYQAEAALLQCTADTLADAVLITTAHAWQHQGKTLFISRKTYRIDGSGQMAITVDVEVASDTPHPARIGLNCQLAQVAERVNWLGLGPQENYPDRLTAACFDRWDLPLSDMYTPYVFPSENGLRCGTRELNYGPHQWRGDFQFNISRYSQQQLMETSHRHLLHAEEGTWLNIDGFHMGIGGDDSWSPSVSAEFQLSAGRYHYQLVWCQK

[5] = biological target: T6, DNA dC->dU-editing enzyme APOBEC-3G (Homo sapiens, UniProt Q9HC16); assay: Dose Response confirmation of small molecule APOBEC3G DNA Deaminase Inhibitors via a fluorescence-based single-stranded DNA deaminase assay. [Related pubchem assays (depositor defined):AID493012, AID493028]; type: functional
T6 sequence (Q9HC16 whole entry): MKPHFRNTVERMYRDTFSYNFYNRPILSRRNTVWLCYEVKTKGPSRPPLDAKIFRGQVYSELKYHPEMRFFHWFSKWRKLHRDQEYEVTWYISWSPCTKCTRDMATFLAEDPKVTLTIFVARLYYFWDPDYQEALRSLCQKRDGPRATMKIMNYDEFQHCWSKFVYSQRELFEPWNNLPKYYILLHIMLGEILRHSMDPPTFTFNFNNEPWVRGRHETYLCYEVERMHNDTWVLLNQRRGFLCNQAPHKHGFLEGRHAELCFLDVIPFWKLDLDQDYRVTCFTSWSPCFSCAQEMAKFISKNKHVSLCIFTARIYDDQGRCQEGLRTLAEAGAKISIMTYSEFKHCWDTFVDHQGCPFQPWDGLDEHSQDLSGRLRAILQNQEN

[6] = biological target: DNA dC->dU-editing enzyme APOBEC-3A (Homo sapiens, UniProt P31941); assay: Dose Response confirmation of small molecule APOBEC3A DNA Deaminase Inhibitors via a fluorescence-based single-stranded DNA deaminase assay. [Related pubchem assays (depositor defined):AID493011, AID493024]; type: functional
[7] = biological target: T6, DNA dC->dU-editing enzyme APOBEC-3G; type: functional
[8] = biological target: NAD-dependent protein deacylase sirtuin-5, mitochondrial (Homo sapiens, UniProt Q9NXA8); assay: sirtuin-5 deacylation blockers, concentration series – biochemical, fluorescence imaging, cherry-pick, set 5, dose response (AID 720591);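 note: desuccinylation of succinyl peptide AMC substrate read as fluorescence after trypsin release; potency of inhibitors that lower fluorescence and may act on trypsin instead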
Vero [9] = assay: mammalian cell viability reduction – secondary assay, cytotoxicity control for West Nile virus antiviral project, dose response (AID 1650); type: functional; conditions: Chlorocebus sabaeus
Vero [10] = assay: cells; type: functional, cell-based; conditions: Chlorocebus sabaeus
Vero [11] = assay: cells; type: functional; conditions: Chlorocebus sabaeus
[12] = biological target: Dual specificity tyrosine-phosphorylation-regulated kinase 1A (Rattus norvegicus, UniProt Q63470); type: biochemical, Homo sapiens
Cytochrome P450 2C9 = Cytochrome P450 2C9 (Homo sapiens, UniProt P11712)
[13] = luciferase reporter signal suppression in cells – H4 neuroglioma cells, luminescence, dose response (AID 1990); type: functional, cell-based
[14] = Luminescence Cell-Based Dose Response HTS to Identify Inhibitors of 5'UTR Stem-Loop Driven Prion Protein mRNA Translation in H4 Neuroglioblastoma Cells. [Related pubchem assays: 1827 (Project Summary), 1813 (Primary HTS)]; type: functional
[15] = alpha-synuclein stem-loop luciferase translation blockers – H4 neuroglioma cells, luminescence, confirmation (AID 1988); type: functional, cell-based
[16] = viability of PTEN-deleted HCT116 cells – cell-based, HCT116 PTEN knockout, dose response (AID 1047); type: functional;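 note: HCT116 colon tumor cells with PTEN knocked out; cells exposed to compound for 60 hours before readout; potency for loss of cell viability measured by luminescence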
[17] = viability of HCT116 lacking mutant beta-catenin – cell-based, human colon tumor, dose response (AID 1045); type: functional;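 note: HCT116 colon tumor cells with beta catenin knocked out; cells exposed to compound for 60 hours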
[18] = biological target: T7, Ubiquitin-conjugating enzyme E2 N (Homo sapiens, UniProt P61088); type: functional;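 note: Dose-response confirmation in a TR-FRET assay detecting UBC13-driven polyubiquitin chain formation, inhibition measured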
T7 sequence (P61088 whole entry): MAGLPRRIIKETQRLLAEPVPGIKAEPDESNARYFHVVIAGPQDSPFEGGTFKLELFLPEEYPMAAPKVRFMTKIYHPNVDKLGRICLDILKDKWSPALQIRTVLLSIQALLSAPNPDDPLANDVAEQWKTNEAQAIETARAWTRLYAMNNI

[19] = biological target: Glucose-6-phosphate 1-dehydrogenase (Homo sapiens, UniProt P11413); assay: inhibition of Homo sapiens G6PD, dose series – biochemical, fluorescence, selectivity assay for P. falciparum G6PD inhibitor project, dose response (AID 504792); type: functional
[20] = biological target: Heat shock protein HSP 90-alpha (Homo sapiens, UniProt P07900); type: functional, organism-based

Cytochrome P450 3A4, sequence (P08684 whole entry): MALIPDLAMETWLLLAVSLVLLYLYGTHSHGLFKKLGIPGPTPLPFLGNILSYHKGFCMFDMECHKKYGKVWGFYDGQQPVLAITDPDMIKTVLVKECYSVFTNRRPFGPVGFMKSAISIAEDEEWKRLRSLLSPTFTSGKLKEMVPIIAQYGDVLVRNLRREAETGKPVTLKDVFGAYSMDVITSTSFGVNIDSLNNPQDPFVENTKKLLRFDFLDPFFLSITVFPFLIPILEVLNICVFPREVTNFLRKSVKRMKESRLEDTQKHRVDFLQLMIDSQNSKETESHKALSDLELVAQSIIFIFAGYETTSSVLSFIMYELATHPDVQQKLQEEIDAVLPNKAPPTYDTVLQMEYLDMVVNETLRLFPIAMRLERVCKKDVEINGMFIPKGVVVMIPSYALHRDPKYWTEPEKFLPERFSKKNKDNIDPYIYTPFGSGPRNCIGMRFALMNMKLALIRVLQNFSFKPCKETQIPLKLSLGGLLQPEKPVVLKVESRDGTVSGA

In the case of `CCCn1c(C)c(C(=O)c2ccc3ccccc3c2)c2ccccc21`, the AC50 (Cytochrome P450 3A4) is reported as “inconclusive”.
For `CN(C)c1cccc(C(=O)n2cc(C(=O)c3cc(F)ccc3O)cn2)c1`, the IC50 (Coagulation factor XII) was 12.4 µM (active), the IC50 (Cysteine protease ATG4B) was 7.59 µM (active) and the IC50 (Phospholipase A2) was 9.78 µM (active).
In the case of `Cc1ccc(OCc2cc(C(=O)N3C[C@H]4C[C@H]5C[C@@H](C4)C[C@H]3C5)no2)cc1C`, the AC50 (HeLa) is reported as 151 µM (active).
For `Cn1cc(Cl)c(C(=O)Nc2nc3ccc([N+](=O)[O-])cc3s2)n1`, the IC50 [1] was 5.21 µM (active) and the IC50 [2] was > 50 µM (inactive).
In the case of `COc1cccc(CNC(=O)CCC2CCCN(Cc3cc(Cl)ccc3O)C2)c1` (configuration not stated), the EC50 [3] is reported as 2.11 µM (active).
In the case of `O=C(NCc1ccncc1)c1ccc(Br)o1`, the IC50 (Coagulation factor XII) is reported as > 50 µM (inactive).
With `N#C/C(=C\c1ccc(-c2cccc([N+](=O)[O-])c2)o1)C(=O)Nc1nc(-c2cccs2)cs1` the IC50 [4] was > 66.6 µM (inactive) and the IC50 (Beta-galactosidase) was > 66.6 µM (inactive).
With `CCOC(=O)c1c(N)sn(-c2ccccc2C)c1=S` the IC50 [5] was 45.6 µM (active).
In the case of `O=[N+]([O-])c1cc2c(cc1/C=N/Nc1nc(O)c3ccccc3n1)OCO2`, the IC50 [6] is reported as 3.63 µM (active) and the IC50 [7] is reported as 4.7 µM (active).
With `Cc1ccc(NC(=O)c2sc3nc(C)cc(C)c3c2N)cc1` the AC50 (HeLa) was 213 µM (active).
For `CC12CCC(C/C1=N/OC(=O)c1cccc([N+](=O)[O-])c1)C2(C)C` (configuration not stated), the EC50 [3] was 0.531 µM (active).
With `CC(=O)Nc1ccc(NC(=O)c2ccc(NC(=O)c3ccccc3)cc2)cc1` the IC50 [1] was 6.5 µM (active) and the IC50 [2] was > 50 µM (inactive).
In the case of `O=S(=O)([N-]c1nc2ccccc2nc1-[n+]1ccn(Cc2ccccc2)c1)c1ccc(Cl)cc1`, the IC50 (Coagulation factor XII) is reported as > 50 µM (inactive) and the AC50 [8] is reported as 24.8 µM (active).
With `CC1(C)COC(/C=C/c2ccc([N+](=O)[O-])cc2)=N1` the CC50 (Vero [9]) was 10.2 µM (active), the IC50 (Vero [10]) was > 25 µM (active) and the CC50 (Vero [11]) was 12.4 µM (active).
With `CCN(CC)c1c([N+](=O)[O-])c(=O)sc2ccccc12` the AC50 [12] was > 120 µM (inactive).
For `CCOC(=O)/C(C#N)=C\N(C)C`, the AC50 (Cytochrome P450 2C9) was 39.8 µM (inconclusive) and the AC50 (Cytochrome P450 3A4) was “inconclusive”.
In the case of `Cc1ccc(Nc2ncc(C(=O)NCCCN3CCN(C)CC3)c3ccccc23)cc1Cl`, the IC50 (Vero [10]) is reported as 22.7 µM (active) and the CC50 (Vero [11]) is reported as > 25 µM (active).
For `O=C1CCCc2ccccc2N1Cc1ccccc1Cl`, the AC50 (Cytochrome P450 3A4) was “inconclusive”.
With `CCCCn1cnc2sc(-c3ccccc3)cc2c1=O` the AC50 (HeLa) was 111 µM (active).
In the case of `c1cc2c(cc1C1CCCCC1)c1c3n2CCCNC3CCC1` (configuration not stated), the EC50 [13] is reported as > 120 µM (not active), the EC50 [14] is reported as 71.1 µM (active) and the EC50 [15] is reported as 18 µM (active). The EC50 [16] was 5.92 µM (active), the EC50 [17] was 4.46 µM (active) and the IC50 [4] was 19.8 µM (active). For the same compound, the IC50 [18] was > 20 µM (inactive) and the IC50 (Beta-galactosidase) was > 66.6 µM (inactive).
For `CCC(=O)OCOc1ccc(/C=C2/CCC(CN(C)C)C2=O)cc1` (configuration not stated), the IC50 [19] was > 80 µM (inactive), the IC50 [4] was 15.5 µM (active) and the IC50 (Beta-galactosidase) was > 66.6 µM (inactive). The AC50 [20] was 2.85 µM (active).
